# Assay results published in patent US20260159512A1, “BCAT2 INHIBITORS” (AGIOS PHARMACEUTICALS, INC., priority 2021, published 2026).
# Key:
# [1] = target: T1, BCAT2 (Homo sapiens, UniProt O15382); test: BCAT2 in vitro enzyme inhibition assay (resazurin/diaphorase-coupled fluorescence); type: biochemical; details: average where tested multiple times
# T1 sequence (O15382 28-392): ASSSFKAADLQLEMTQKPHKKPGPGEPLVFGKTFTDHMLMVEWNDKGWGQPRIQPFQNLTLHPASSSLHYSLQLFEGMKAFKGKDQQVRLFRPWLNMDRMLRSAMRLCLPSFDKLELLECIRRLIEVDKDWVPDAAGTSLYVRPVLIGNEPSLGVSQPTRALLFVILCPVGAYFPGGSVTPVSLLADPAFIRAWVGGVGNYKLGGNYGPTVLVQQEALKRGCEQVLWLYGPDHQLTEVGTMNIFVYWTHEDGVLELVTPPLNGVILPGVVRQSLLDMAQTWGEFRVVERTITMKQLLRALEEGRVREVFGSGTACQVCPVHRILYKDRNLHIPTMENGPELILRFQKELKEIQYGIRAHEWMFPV
# How it was run: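 Coupled fluorescence readout: glutamate formed from L-leucine/α-ketoglutarate transamination drives GDH/NAD/diaphorase reduction of resazurin (Ex 540/Em 590). Human BCAT2 was first exposed 1 h at room temperature to compound, top final 100 μM in 3-fold, 10-point series; substrate reaction ran 1 h before SDS quench, in technical duplicate with DMSO max and enzyme-free min controls.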
# [2] = target: T2, hBCAT1 (Homo sapiens, UniProt P54687); test: BCAT1 in vitro enzyme inhibition assay (resazurin/diaphorase-coupled fluorescence); type: biochemical; details: average where tested multiple times
# T2 sequence (P54687 1-386): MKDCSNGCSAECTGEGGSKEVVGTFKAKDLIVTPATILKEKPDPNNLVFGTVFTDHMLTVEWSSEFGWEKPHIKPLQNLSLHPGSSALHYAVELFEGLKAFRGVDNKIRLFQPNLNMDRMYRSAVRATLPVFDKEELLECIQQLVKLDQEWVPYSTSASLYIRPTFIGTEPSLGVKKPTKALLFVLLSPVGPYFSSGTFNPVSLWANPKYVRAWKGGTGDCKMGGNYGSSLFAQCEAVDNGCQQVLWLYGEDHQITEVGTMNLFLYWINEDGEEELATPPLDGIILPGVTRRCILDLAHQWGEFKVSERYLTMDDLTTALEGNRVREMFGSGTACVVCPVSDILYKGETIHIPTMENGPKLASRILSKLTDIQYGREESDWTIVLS
# Procedure: BCAT1 In Vitro Enzyme Inhibition Assay
# Meanwhile the Substrate Mix was prepared.
# Test Compound Preparation:
# Test compounds were prepared at 50× final concentration in DMSO, 1 to 3 dilutions were made for 10 points. The compounds were added to the assay as a 1 to 50 dilution (1 μL in 50 μL) to yield a top assay final concentration of 100 μM, decreasing 3-fold for 10 points. […] All tests were performed in technical duplicate.
# Where a compound was tested multiple times, the average value of the tests is reported.
Structure (SMILES),IC50 [1],IC50 [2]
"O=C(NC1COCC(n2c(-c3ccccn3)nc3cnc(-n4ccnn4)cc32)C1)c1ncc(C(F)F)s1 (single isomer, unassigned) [Example 146, 5-(difluoromethyl)-N-(5-(2-(pyridin-2-yl)-6-(1H-1,2,3-triazol-1-yl)-1H-imidazo[4,5-c]pyridin-1-yl)tetrahydro-2H-pyran-3-yl)thiazole-2-carboxamide]",> 1000 nM,> 5000 nM
"O=C(N[C@H]1CCC[C@@H](n2c(-c3ccccc3F)nc3cnc(-c4c(F)cccc4F)cc32)C1)c1ncc(Cl)s1 [Example 207, 5-chloro-N-((1S,3R)-3-(6-(2,6-difluorophenyl)-2-(2-fluorophenyl)-1H-imidazo[4,5-c]pyridin-1-yl)cyclohexyl)thiazole-2-carboxamide]",100 to 500 nM,> 5000 nM
"O=C(NC1COCC(n2c(-c3ncccc3F)nc3cnc(-n4ccnn4)cc32)C1)c1ncc(C(F)F)s1 (single isomer, unassigned) [Example 144, 5-(difluoromethyl)-N-(5-(2-(3-fluoropyridin-2-yl)-6-(1H-1,2,3-triazol-1-yl)-1H-imidazo[4,5-c]pyridin-1-yl)tetrahydro-2H-pyran-3-yl)thiazole-2-carboxamide]",500 to 1000 nM,> 5000 nM
"CC(C)Cc1nc2cnc(-c3nc[nH]n3)cc2n1[C@@H]1C[C@H](NC(=O)c2ccc(Cl)s2)CC(F)(F)C1 (stereo in doubt) [Example 454, 5-chloro-N-((1S,5R)-3,3-difluoro-5-(2-isobutyl-6-(1H-1,2,4-triazol-3-yl)-1H-imidazo[4,5-c]pyridin-1-yl)cyclohexyl)thiophene-2-carboxamide]",≤ 100 nM,< 500 nM
"CC(C)Cc1nc2cnc(-c3cccc4ccoc34)cc2n1[C@@H]1CCC[C@H](NC(=O)c2ncc(Cl)s2)C1 [Example 327, N-((1S,3R)-3-(6-(benzofuran-7-yl)-2-isobutyl-1H-imidazo[4,5-c]pyridin-1-yl)cyclohexyl)-5-chlorothiazole-2-carboxamide]",100 to 500 nM,1000 to 5000 nM
"CC(C)Cc1nc2cnc(-c3ccccc3F)cc2n1[C@@H]1CCC[C@H](NC(=O)c2ncc(Cl)s2)C1 [Example 206, 5-chloro-N-((1S,3R)-3-(6-(2-fluorophenyl)-2-isobutyl-1H-imidazo[4,5-c]pyridin-1-yl)cyclohexyl)thiazole-2-carboxamide]",100 to 500 nM,> 5000 nM
"Cc1nsc(-c2cc3c(cn2)nc(CC(C)C)n3[C@@H]2CCC[C@H](NC(=O)c3ncc(Cl)s3)C2)n1 [Example 336, 5-chloro-N-((1S,3R)-3-(2-isobutyl-6-(3-methyl-1,2,4-thiadiazol-5-yl)-1H-imidazo[4,5-c]pyridin-1-yl)cyclohexyl)thiazole-2-carboxamide]",100 to 500 nM,1000 to 5000 nM
"O=C(N[C@H]1CCC[C@@H](n2c(N3CCCCC3)nc3cnc(-c4nc[nH]n4)cc32)C1)c1ccc(Cl)s1 [Example 372, 5-chloro-N-((1S,3R)-3-(2-(piperidin-1-yl)-6-(1H-1,2,4-triazol-3-yl)-1H-imidazo[4,5-c]pyridin-1-yl)cyclohexyl)thiophene-2-carboxamide]",≤ 100 nM,< 500 nM
"O=C(N[C@H]1CCC[C@@H](n2c(-c3ncccc3F)nc3cnc(N4CCNC4=O)cc32)C1)c1ncc(C(F)F)s1 [Example 54, 5-(difluoromethyl)-N-((1S,3R)-3-(2-(3-fluoropyridin-2-yl)-6-(2-oxoimidazolidin-1-yl)-1H-imidazo[4,5-c]pyridin-1-yl)cyclohexyl)thiazole-2-carboxamide]",≤ 100 nM,> 5000 nM
"O=C(N[C@H]1CCC[C@@H](n2c(-n3cccn3)nc3cnc(-n4ccnn4)cc32)C1)c1ncc(C(F)F)s1 [Example 57, N-((1S,3R)-3-(2-(1H-pyrazol-1-yl)-6-(1H-1,2,3-triazol-1-yl)-1H-imidazo[4,5-c]pyridin-1-yl)cyclohexyl)-5-(difluoromethyl)thiazole-2-carboxamide]",500 to 1000 nM,> 5000 nM
"Cn1ccc(Oc2cc3c(cn2)nc(-c2ncccc2F)n3[C@@H]2CCC[C@H](NC(=O)c3ncc(C(F)F)s3)C2)n1 [Example 268, 5-(difluoromethyl)-N-((1S,3R)-3-(2-(3-fluoropyridin-2-yl)-6-((1-methyl-1H-pyrazol-3-yl)oxy)-1H-imidazo[4,5-c]pyridin-1-yl)cyclohexyl)thiazole-2-carboxamide]",500 to 1000 nM,> 5000 nM
"C#Cc1ccc(C(=O)NC2CC(n3c(-c4ccccc4F)nc4cc(C(=O)NC)c(OC)cc43)CN(C)C2)s1 (stereo not drawn) [Example 292, 1-(5-(5-ethynylthiophene-2-carboxamido)-1-methylpiperidin-3-yl)-2-(2-fluorophenyl)-6-methoxy-N-methyl-1H-benzo[d]imidazole-5-carboxamide]",≤ 100 nM,1000 to 5000 nM

# The remaining lines, values ahead:
IC50 [1],IC50 [2],Structure (SMILES)
100 to 500 nM,> 5000 nM,"CC(=O)N1CC(NC(=O)c2ccc(Br)s2)CC(n2c(-c3ccccn3)nc3cc(-c4nnco4)ccc32)C1 (stereo not drawn) [Example 282, N-(5-(5-(1,3,4-oxadiazol-2-yl)-2-(pyridin-2-yl)-1H-benzo[d]imidazol-1-yl)-1-acetylpiperidin-3-yl)-5-bromothiophene-2-carboxamide]"
> 1000 nM,> 5000 nM,"O=C(N[C@H]1CCC[C@@H](n2c(-c3ccccc3F)nc3cnc(N4CCC4)cc32)C1)c1ccc(Br)s1 [Example 301, N-((1S,3R)-3-(6-(azetidin-1-yl)-2-(2-fluorophenyl)-1H-imidazo[4,5-c]pyridin-1-yl)cyclohexyl)-5-bromothiophene-2-carboxamide]"
≤ 100 nM,1000 to 5000 nM,"CNC(=O)c1ccc2c(c1)nc(-c1ccccn1)n2C1CC(NC(=O)c2ccc(Br)s2)CN(C(N)=O)C1 (stereo not drawn) [Example 293, 1-(5-(5-bromothiophene-2-carboxamido)-1-carbamoylpiperidin-3-yl)-N-methyl-2-(pyridin-2-yl)-1H-benzo[d]imidazole-5-carboxamide]"
100 to 500 nM,> 5000 nM,"C#Cc1ccc(C(=O)N[C@H]2CCC[C@@H](n3c(-c4ccccn4)nc4cc(-c5cnco5)ncc43)C2)s1 [Example 153, 5-ethynyl-N-((1S,3R)-3-(6-(oxazol-5-yl)-2-(pyridin-2-yl)-3H-imidazo[4,5-c]pyridin-3-yl)cyclohexyl)thiophene-2-carboxamide]"
≤ 100 nM,> 5000 nM,"CNC(=O)c1cc2nc(-c3ccccn3)n(C3CC(NC(=O)c4ccc(Br)s4)CN(C)C3)c2cc1OC (stereo not drawn) [Example 290, 1-(5-(5-bromothiophene-2-carboxamido)-1-methylpiperidin-3-yl)-6-methoxy-N-methyl-2-(pyridin-2-yl)-1H-benzo[d]imidazole-5-carboxamide]"
100 to 500 nM,> 5000 nM,"CC(=O)N1CC(NC(=O)c2ccc(Br)s2)CC(n2c(-c3ccccn3)nc3ccc(C#N)cc32)C1 (stereo not drawn) [Example 289, N-(1-acetyl-5-(6-cyano-2-(pyridin-2-yl)-1H-benzo[d]imidazol-1-yl)piperidin-3-yl)-5-bromothiophene-2-carboxamide]"
> 1000 nM,> 5000 nM,"CC(C)(O)c1nc2cnc(-n3cncn3)cc2n1[C@@H]1CCC[C@H](NC(=O)c2ccc(Br)s2)C1 [Example 92, 5-bromo-N-((1S,3R)-3-(2-(2-hydroxypropan-2-yl)-6-(1H-1,2,4-triazol-1-yl)-1H-imidazo[4,5-c]pyridin-1-yl)cyclohexyl)thiophene-2-carboxamide]"
≤ 100 nM,1000 to 5000 nM,"CC(=O)N1CC(NC(=O)c2ccc(Br)s2)CC(n2c(-c3ccccn3)nc3cc(-c4ncon4)ccc32)C1 (stereo not drawn) [Example 284, N-(5-(5-(1,2,4-oxadiazol-3-yl)-2-(pyridin-2-yl)-1H-benzo[d]imidazol-1-yl)-1-acetylpiperidin-3-yl)-5-bromothiophene-2-carboxamide]"
≤ 100 nM,> 5000 nM,"O=C(N[C@H]1CCC[C@@H](n2c(-c3ccccn3)nc3cc(-n4nccn4)ncc32)C1)c1ccc(Br)s1 [Example 151, 5-bromo-N-((1S,3R)-3-(2-(pyridin-2-yl)-6-(2H-1,2,3-triazol-2-yl)-3H-imidazo[4,5-c]pyridin-3-yl)cyclohexyl)thiophene-2-carboxamide]"
